Key:
[1] = tested on: HIV-1 gene expression in J.Lat10.6 latently infected T-cell line; assay: cells; format: cell-based
Protocol: The J.Lat10.6 latently infected T-cell line was treated with 4 compounds of the present invention, DP#6 (Compound 41), DP#14 (Compound 7), DP#18 (Compound 65), and DP#19 (Compound 73) and reactivated for 48 hrs. HIV-1 reactivation was measured by flowcytometry for GFP expression. Error bars represent standard deviation of n=3 experiments.
FIG. 45. […] The J.Lat10.6 model of HIV-1 latency was treated with JQ1 (+) and DP#14 (Compound 7) alone at 10 μM and in combination, and the HIV-1 gene expression measured 48 hrs post treatment. Error bars represent standard deviation of n=3 experiments. OPTI represents media alone, without DP#14.
FIG. 47. […] The J.Lat10.6 model of HIV-1 latency was treated with PFI-1 and DP#14 alone at 10 μM and in combination, and the HIV-1 gene expression measured 48 hrs post treatment. Error bars represent standard deviation of n=3 experiments. OPTI represents media alone, without DP#14.
Compounds were also evaluated in a dose ranging titration with HIV latently infected cell lines (J.Lat 6.3 and 10.6). The specificity of the selected compounds in these cell line models, were measured by inserting a CMV-DS.Red reporter into these cells to co-ordinately measure HIV specific LTR-Green fluorescent protein and non-specific DS.Red expression during FACS analysis.
The J.Lat model of HIV-1 latency is a well-established model used widely and is described in detail in the following paper:
HIV reproducibly establishes a latent infection after acute infection of T cells in vitro, Eric Verdin et al, The EMBO Journal Vol. 22 No. 8 pp 1868-1877, 2003

[2] = tested on: J.Lat10.6 T-cell line; assay: Dose dependent toxicity in the J.Lat model; format: cell-based; conditions: dosed as high as 40 μM

O=C(CCCOc1ccccc1)Nc1ncc(Br)s1 [Compound 7]
IC50 ([1]; Human immunodeficiency virus 1, J-Lat 10.6, 48 h, read-out: IC50 for reactivation of HIV-1 gene expression): ~4.5 µM
percent of the cells treated with reactivated HIV-1 gene expression ([1]; J.Lat10.6 model, alone at 10 μM and in combination, 48 hrs post treatment): 2.4%
dose dependent toxicity [2]: no such toxicity

Source: patent publication US20190330167A1, “ACTIVATORS OF HIV LATENCY” (priority 2016, published 2019)
